In patent publication US11629192B2, “Methods and pharmaceutical compositions for the treatment of diseases mediated by the NRP-1/OBR complex signaling pathway” (INSERM (Institut National de la Sante et de la Recherche …, priority 2014, dated 2023):
Entries after “also recorded” stand apart in the source; their conditions may differ.

Experiments:
MDA-MB-231 cells = assay: MDA-MB-231 cell migration / transmigration through insert; assay type: cell-based, human
From the text: FIG. 5. NRP-1, OBR and leptin interactions confirmation using a Bio-Layer Interferometry (BLI) technology (fortebio.com/bli-technology.html): A-Leptin (OB) interaction to OBR is used as a positive control. Human neuropilin-1 (hNRP-1) interact with human OBR with a high affinity and specifically with human leptin (hOB) but not with murine leptin (mOB). VEGF165 binding to hNRP-1 is used as a positive control. B-Leptin and Avastin association increases MDA-MB231 cells transmigration through […] pore Insert. Avastin treatment may prevent a negative feedback control by VEGF of the pro-angiogenic signaling pathway of Leptin. VEGF binds to OBR which confirms our hypothesis that should be more investigated.
First MBA-MB-231 and T47D breast cancer cells line were selected for their high and undetectable NRP-1 expression respectively and the expression of Leptin receptor (OBR). In order to investigate NRP-1 and Leptin association in breast cancer cell line migration, we proceeded to NRP-1 expression silencing in MDA-MB-231 using either siRNA or shRNA approaches or NRP-1 overexpression in T47D. […] In contrast Leptin induced MDA-MB-231 migration that was decreased in siNRP-1 conditions. The in vitro data were confirmed in vivo by MDA-MB-231 and T47D xenografts in Nude mice. Modulation of NRP-1 expression either by shRNA silencing in MDA-MB-231 or by overexpression in T47D induced an increase of proliferation and a decrease of lymph node infiltration by MDA-MB-231-shNRP-1 and a decrease of proliferation and an increase of lymph node infiltration by T47D-NRP-1-RFP in mice treated with Leptin.
Leptin induced in vitro MDA-MB-231 migration that was decreased by NRP-1 repression using siRNA. Lel Xu et al have reported a direct evidence of NRP-1 up-regulation in tumors treated by anti-VEGF (Bevacizumab). […] This observation can be a first explanation of breast cancer therapy failure (increase of Progression survival while decreasing overall survival) by Bevacizumad and that was revoked by the FDA (Food and Drugs Administration, US).

NRP-1 = NRP-1 (Homo sapiens, UniProt O14786); assay: Direct binding of Leptin to NRP-1 by HTRF and confocal microscopy
From the text: NRP-1 has been reported to bind directly VEGF increasing thus the binding affinity of VEGF to its receptor VEGFR2 […] and Sema3A enabling thus its binding to Plexin 3A. Our study led us to highlight a new mechanism of NRP-1 function. […] NRP-1 repression by siNRP-1 decreased the BRET signal and OBR oligomerization.

[1] = tested on: T47D-NRP-1-RFP xenografts; assay: Transcriptome of T47D-NRP-1-RFP xenografts treated or not with Leptin; assay type: in vivo, Nude mice; details: Leptin treated vs not treated T47D-NRP-1-RFP xenografts
From the text: Although the Chip-Seq was realized on MDA-MB-231, we opted to realize a transcriptome of T47D overexpressing NRP-1-RFP xenografts compared to T47D-wt and T47D-RFP treated or not with Leptin regarding to the lymph node infiltration induced by the NRP-1 overexpression and its increase by Leptin treatment. To determine any direct association of NRP-1 in gene expression, we realize first a global analysis of transcriptome of T47D-NRP-1 xenografts treated and not treated with Leptin (n=8) compared to T47D-wt and T47D-RFP xenografts treated and not treated with Leptin (n=8). […] The analysis of gene expression in Leptin treated T47D-NRP-1-RFP compared to no treated xenografts, highlighted 66 genes with 31 genes enriched in the Chip-Seq of MDA-MB-231 and that were not detected in T47D-wt and T47D-RFP treated or not with Leptin. Only 4 genes enriched in the Chip-Seq contained peaks associated to transcription factor binding site such as FUS (fused in sarcoma, fold increase 1.79; p=0.045) for Pol2 and C12orf45 (chromosome 12 open reading frame, fold increase 1.29; p=0.03) for CTCF. […] Since Plasminogen Activator Inhibitor 1 (PAI.1) related to SERPINE1 gene has been associated to breast cancer invasion and metastasis, we evaluated PAI.1 expression by immunostaining in T47D-NRP-1-RFP xenografts compared to T47D-wt and T47D-RFP.

direct binding to NRP-1 (NRP-1): unable to bind directly
Substance: Leptin: small non glycosylated protein, ligand of OBR
MDA-MB-231 migration induced by Bevacizumab, effect of Leptin (MDA-MB-231 cells; 10 μg/ml of Bevacizumab plus Leptin): increased
MDA-MB-231 migration (MDA-MB-231 cells; in vitro, Leptin alone): increased; also recorded: induced
C12orf45 gene expression, fold increase ([1]; p=0.03): 1.29 fold
FUS gene expression, fold increase ([1]; p=0.045): 1.79 fold
